From patent US11752126B2, “Stable cannabinoid compositions” (Sino-German M&A Service GmbH, priority 2017, dated 2023)

Assay: THC content over time in different stabilizing systems (FIG. 1)
Format: physicochemical
From the text: In the lower data set, the initial concentration of THC is reduced to 91% at day 93 with respect to the initial concentration of THC at day 0.

CCCCCc1cc(O)c2c(c1)OC(C)(C)[C@@H]1CCC(C)=C[C@@H]21 [THC, tetrahydrocannabinol]
evolution of the relative concentration of tetrahydrocannabinol (THC) (system including 1 weight percent tocopherol, over time): nearly flat over time
relative concentration of tetrahydrocannabinol (THC) (system including no tocopherol, day 93, with respect to the initial concentration of THC at day 0): 91%
